From paper PMC9815933, “Computational Drug Repurposing Approach to Identify Novel Inhibitors of ILK Protein for Treatment of Esophageal Squamous Cell Carcinoma” (Journal of Oncology, 2022) come the findings set out here.

The test addresses T1, integrin-linked kinase (ILK) (Homo sapiens, UniProt Q13418).
T1 sequence (Q13418 1-452): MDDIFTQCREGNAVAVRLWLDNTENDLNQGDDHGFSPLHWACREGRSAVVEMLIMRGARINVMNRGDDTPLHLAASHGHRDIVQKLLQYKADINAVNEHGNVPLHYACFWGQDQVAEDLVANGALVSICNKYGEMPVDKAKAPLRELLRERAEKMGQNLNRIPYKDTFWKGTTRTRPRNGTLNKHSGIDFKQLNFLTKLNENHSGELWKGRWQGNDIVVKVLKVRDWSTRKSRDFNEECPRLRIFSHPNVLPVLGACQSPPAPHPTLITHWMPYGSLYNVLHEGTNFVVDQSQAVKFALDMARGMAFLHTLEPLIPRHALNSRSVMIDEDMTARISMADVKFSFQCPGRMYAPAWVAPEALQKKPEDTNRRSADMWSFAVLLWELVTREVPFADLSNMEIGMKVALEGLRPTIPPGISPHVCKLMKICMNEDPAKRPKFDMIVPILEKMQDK
Nature of the test: SPR (Biacore S200), ILK immobilized on CM5 chip. It is filed as binding. Background: SPR reads the build-up and loss of mass on a sensor chip optically.
`COc1ccc(N=Nc2c(N)n[nH]c2N)cc1` [ILK-IN-3, reference compound]: the affinity, expressed as Kd, was 2640 nM.
Compound `COc1cc([C@@H]2c3cc4c(cc3[C@@H](O[C@@H]3O[C@@H]5CO[C@@H](c6cccs6)O[C@H]5[C@H](O)[C@H]3O)[C@H]3COC(=O)[C@H]23)OCO4)cc(OC)c1O` [d2, Teniposide] displayed a Kd of 1790 nM.
The compound `Cc1cn(-c2cc(NC(=O)c3ccc(C)c(Nc4nccc(-c5cccnc5)n4)c3)cc(C(F)(F)F)c2)cn1` [d1, Nilotinib] had a Kd of 6410 nM.

For orientation: Kd means a measure of binding affinity in units of concentration. A higher Kd goes with lower affinity.
